Measured values from patent US20090123389A1, “Methods for modulating Th17 cell development in the treatment and prevention of cellulite” (priority 2007, published 2009).

Tested on: STAT3
Test: Kinetics of STAT3 phosphorylation in developing Th17 cells
Type: cell-based, mouse
Details: TGFβ plus IL-6
Method: FIG. 11A is a series of graphs depicting representative histograms displaying the kinetics of STAT3 phosphorylation in developing Th17 cells treated with or without HF. Resting naïve T cells (shaded peak), T cells activated in the presence of TGFβ plus IL-6 (TGFβ/IL-6) treated with 10 nM MAZ1310, TGFβ/IL-6-activated T cells treated with 5 nM HF, TGFβ/IL-6-activated T cells treated with 10 nM HF. T cells were fixed at the indicated times and intracellular phospho-STAT3 staining was performed.
Whole cell lysates were generated at the indicated times following activation, and western blotting was performed using the indicated antibodies.
FACS analyses and sorting: All cell surface staining was performed in FACS buffer (PBS/2% FCS/0.1% NaN3) and antibodies were incubated with cells on ice for 20-30 minutes. Cells were washed with FACS buffer and fixed with FACS buffer plus 1% paraformaldehyde prior to data acquisition. For phospho-STAT3 intracellular staining, stimulated T cells cultured with or without TGFβ plus IL-6 for the indicated times were harvested on ice and fixed in PBS plus 2% paraformaldehyde for 10 minutes at 37° C. […] All FACS data was acquired on a FACSCalibur flow cytometer (BD Pharmingen) and analyzed using FlowJo software (Treestar, Inc., Ashland, Oreg.). […]

O=C(CC1NCCCC1O)Cn1cnc2cc(Br)c(Cl)cc2c1=O (racemic) [HF, 7-bromo-6-chloro-3-[3-(3-hydroxy-2-piperidinyl)-2-oxopropyl]-4(3H)-quinazolinone]
STAT3 activation during the first 6 hours of Th17 differentiation (5 or 10 nM HF): did not interfere | maintenance of STAT3 phosphorylation (beginning around 12 hours-post activation): decreased the maintenance of STAT3 phosphorylation
